Experimental data: patent US10106516B2, “PDE10 inhibitors and related compositions and methods” (Omeros Corporation, priority 2010, dated 2018)

Molecular target: T1, PDE10 (Homo sapiens, UniProt Q9Y233)
T1 construct: made in house; host or cells: Sf9 insect cells (baculovirus)
Assay: PDE10 biochemical assay (two-step Thompson and Appleman method or SPA)
Conditions: PDE10 inhibition
Procedure: In short, cAMP is spiked with (^3H)cAMP and incubated with PDE10 and various concentrations of a compound of structure (I). After the appropriate incubation time, the reaction is terminated by heating. The mixture is then subjected to treatment with snake venom phosphatase. The phosphatase hydrolyzes any AMP in the mixture, but leaves unreacted cAMP intact. Thus, by separating cAMP from the mixture and determining its concentration (by radiography), the percent of inhibition can be determined. IC50 values can be calculated by performing the experiment at several concentrations using standard graphical means. A detailed description of the actual technique used for IC50 assays as set forth in following Examples.
The phosphodiesterase (PDE) assay was performed using recombinant human PDE 1A3, 2A3, 3 catalytic region, 4 catalytic region, 5 catalytic region, 7A, 8A, 9A2, 10A1 and 11A1 enzymes expressed in a baculoviral system using Sf9 cells. PDE activity was measured using a modification of the two-step method of Thompson and Appleman described above which was adapted for 96 well plate format. […] The final assay volume was 110 μl with assay buffer (10 mM MgCl2; 40 mM Tris.HCl; pH 7.4). Reactions were initiated with enzyme and incubated with (^3H)-substrate and substance for 20 minutes at 30° C. The reaction was terminated by denaturing the enzyme (heating the reaction to 70° C. for 2 minutes). The reaction was then cooled at 4° C. for 10 minutes before the addition of snake venom (Crotalus atrox, 0.2 mg/ml) for 10 minutes at 30° C., thus allowing non-specific hydrolysis of the tritiated substrate. Separation of the remaining unhydrolysed cyclic nucleotide was achieved by a batch binding of the mixture to activated Dowex (200 μl) anion exchange resin. The anion exchange resin bound the charged nucleotides, leaving only hydrolysed (^3H) substrate in the soluble fraction. The soluble fraction (50 μl) was then added to microscint-20 (200 μl) and counted on a Top Count Plate reader. Radioactivity units were plotted against inhibitor concentration and IC50 values obtained using Graph Pad Prism software.
Alternatively, phosphodiesterase activity was measured by scintillation proximity assay (SPA) with [^3H]-cGMP as substrate. Purified PDE10 was diluted and stored in 25 mM Tris-Cl (pH 8.0)/100 mM NaCl/0.05% Tween 20/50% glycerol/3 mM DTT. Assays contained (final concentrations): 50 mM Tris-Cl (pH 7.5)/8.3 mM MgCl2/1.7 mM EGTA/0.5 mg/ml BSA/5% DMSO and 2 ng PDE10 in a final volume of 0.1 mL. Inhibition was evaluated at 8 concentrations in duplicate. Reactions were initiated by addition of enzyme and were terminated after 20 minutes at 30° C. by the addition of 50 μl of SPA beads containing Zn^++. The mixture was shaken, allowed to settle for 3 hours, and counted in a Wallac plate counter. Results (net cpm) were fitted to a four parameter logistic model using Excel Solver®.

T1 sequence (Q9Y233 1-779 isoform Q9Y233-1): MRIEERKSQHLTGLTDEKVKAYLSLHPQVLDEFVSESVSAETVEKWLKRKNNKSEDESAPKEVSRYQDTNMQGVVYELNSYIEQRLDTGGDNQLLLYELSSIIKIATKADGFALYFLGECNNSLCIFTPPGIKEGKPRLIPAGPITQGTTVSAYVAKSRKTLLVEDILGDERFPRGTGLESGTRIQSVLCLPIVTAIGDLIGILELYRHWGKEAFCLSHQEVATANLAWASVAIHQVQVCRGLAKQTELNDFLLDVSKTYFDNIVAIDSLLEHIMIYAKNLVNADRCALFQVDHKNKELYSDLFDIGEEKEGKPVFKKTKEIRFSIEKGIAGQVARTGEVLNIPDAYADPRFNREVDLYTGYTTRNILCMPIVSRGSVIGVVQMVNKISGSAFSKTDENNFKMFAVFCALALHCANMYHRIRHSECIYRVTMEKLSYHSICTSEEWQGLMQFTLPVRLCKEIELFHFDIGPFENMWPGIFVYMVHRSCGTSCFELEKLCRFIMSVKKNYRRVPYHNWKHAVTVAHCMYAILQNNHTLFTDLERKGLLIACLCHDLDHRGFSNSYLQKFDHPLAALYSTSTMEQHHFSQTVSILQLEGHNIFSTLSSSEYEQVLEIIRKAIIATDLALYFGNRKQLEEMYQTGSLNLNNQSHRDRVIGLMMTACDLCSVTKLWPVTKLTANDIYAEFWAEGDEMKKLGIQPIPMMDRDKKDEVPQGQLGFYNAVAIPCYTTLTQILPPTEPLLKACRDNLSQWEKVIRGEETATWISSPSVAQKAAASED

## COc1cc(-c2csc(C(=O)C(OC)c3ccc(-n4cccn4)cc3)n2)cc(OC)c1Br (centres unmarked) [Compound 3-1, 2-(4-(1H-Pyrazol-1-Yl)Phenyl)-1-(4-(4-Bromo-3,5-Dimethoxyphenyl)Thiazol-2-Yl)-2-Methoxyethanone]
  IC50: ≤ 1000 nM

## COc1cc(-c2ccc(C(=O)C(OC)c3ccc(-c4nnc(C)o4)cc3)o2)cc(OC)c1Br (centres unmarked) [Compound 13-1, 1-(5-(4-Bromo-3,5-Dimethoxyphenyl)Furan-2-Yl)-2-Methoxy-2-(4-(5-Methyl-1,3,4-Oxadiazol-2-Yl)Phenyl)Ethanone]
  IC50: ≤ 1000 nM

## COc1cc(-c2ccc(C(=O)C(OC)c3ccc(N4CCOCC4)cc3)o2)cc(OC)c1Cl (centres unmarked) [Compound 50-1, 1-(5-(4-Chloro-3,5-Dimethoxyphenyl)Furan-2-Yl)-2-Methoxy-2-(4-Morpholinophenyl)Ethanone]
  IC50: ≤ 1000 nM

## COc1cc(-c2ccc(C(=O)C(OC)c3ccc(-c4nnc(C)o4)cc3)o2)cc(OC)c1F (centres unmarked) [Compound 62-1, 1-(5-(4-Fluoro-3,5-Dimethoxyphenyl)Furan-2-Yl)-2-Methoxy-2-(4-(5-Methyl-1,3,4-Oxadiazol-2-Yl)Phenyl)Ethanone]
  IC50: ≤ 1000 nM

## COc1cc(-c2ccc(C(=O)C(OC)c3ccc(-c4cccnc4)cc3)o2)cc(OC)c1Br (centres unmarked) [Compound 37-1, 1-(5-(4-Bromo-3,5-Dimethoxyphenyl)Furan-2-Yl)-2-Methoxy-2-(4-(Pyridin-3-Yl)Phenyl)Ethanone]
  IC50: ≤ 1000 nM

## COc1cc(-c2coc(C(=O)C(OC)c3cccc4ncccc34)n2)cc(OC)c1Br (centres unmarked) [Compound 9-1, 1-(4-(4-Bromo-3,5-Dimethoxyphenyl)Oxazol-2-Yl)-2-Methoxy-2-(Quinolin-5-Yl)Ethanone]
  IC50: ≤ 1000 nM

## CCOC(C(=O)c1ccc(-c2cc(OC)c(Br)c(OC)c2)o1)c1ccc(-c2nnc(C)s2)cc1 (centres unmarked) [Compound 65-11]
  IC50: ≤ 1000 nM

## COc1cc(-c2ccc(C(=O)C(OC)c3ccc(-c4nnn(C)n4)cc3)o2)cc(OC)c1Br (centres unmarked) [Compound 33-1, 1-(5-(4-Bromo-3,5-Dimethoxyphenyl)Furan-2-Yl)-2-Methoxy-2-(4-(2-Methyl-2H-Tetrazol-5-Yl)Phenyl)Ethanone]
  IC50: ≤ 1000 nM

## COc1cc(-c2cn(C)c(C(=O)C(OC)c3ccc(N4CCOCC4)cc3)n2)cc(OC)c1Br (centres unmarked) [Compound 4-1, 1-(4-(4-Bromo-3,5-Dimethoxyphenyl)-1-Methyl-1H-Imidazol-2-Yl)-2-Methoxy-2-(4-Morpholinophenyl)Ethanone]
  IC50: ≤ 1000 nM

## COc1cc(-c2nc(C(=O)C(OC)c3ccc(N4CCOCC4)cc3)oc2C)cc(OC)c1Br (centres unmarked) [Compound 55-1, 1-(4-(4-Bromo-3,5-Dimethoxyphenyl)-5-Methyloxazol-2-Yl)-2-Methoxy-2-(4-Morpholinophenyl)Ethanone]
  IC50: ≤ 1000 nM

## COc1cc(-c2coc(C(=O)C(OC)c3ccc(-n4nccn4)cc3)n2)cc(OC)c1Br (centres unmarked) [Compound 65-5]
  IC50: ≤ 1000 nM

## COc1cc(-c2ccc(C(=O)C(OC)c3ccc(-c4csc(C)n4)cc3)o2)cc(OC)c1Br (centres unmarked) [Compound 35-1, 1-(5-(4-Bromo-3,5-Dimethoxyphenyl)Furan-2-Yl)-2-Methoxy-2-(4-(2-Methylthiazol-4-Yl)Phenyl)Ethanone]
  IC50: ≤ 1000 nM

## COc1cc(-c2ccc(C(=O)C(OC)c3ccc(-c4nnc(C)o4)cc3)o2)cc(OC)c1C (centres unmarked) [Compound 21-1, 1-(5-(3,5-Dimethoxy-4-Methylphenyl)Furan-2-Yl)-2-Methoxy-2-(4-(5-Methyl-1,3,4-Oxadiazol-2-Yl)Phenyl)Ethanone]
  IC50: ≤ 1000 nM

## COc1ccc(-c2ccn(C(=O)C(OC)c3ccc(N4CCOCC4)cc3)n2)cc1OC (centres unmarked) [Compound 53-1, 1-(3-(3,4-Dimethoxyphenyl)-1H-Pyrazol-1-Yl)-2-Methoxy-2-(4-Morpholinophenyl)Ethanone]
  IC50: ≤ 1000 nM

## COc1cc(-c2coc(C(=O)C(OC)c3ccc(-n4cncn4)cc3)n2)cc(OC)c1Br (centres unmarked) [Compound 65-2]
  IC50: ≤ 1000 nM

## COc1cc(-c2ccc(C(=O)C(OC)c3ccc(N4CCOCC4)cc3)o2)cc(OC)c1OC(F)F (centres unmarked) [Compound 28-1, 1-(5-(4-(Difluoromethoxy)-3,5-Dimethoxyphenyl)Furan-2-Yl)-2-Methoxy-2-(4-Morpholinophenyl)Ethanone]
  IC50: ≤ 1000 nM

## COc1cc(-c2coc(C(=O)C(OC)c3ccc(OC(C)C)cc3)n2)cc(OC)c1Br (centres unmarked) [Compound 8-1, 1-(4-(4-Bromo-3,5-Dimethoxyphenyl)Oxazol-2-Yl)-2-(4-Isopropoxyphenyl)-2-Methoxyethanone]
  IC50: ≤ 1000 nM

## COc1cc(-c2ccc(C(=O)C(OC)c3ccc(-c4nnc(C)o4)cc3)o2)cc(OC)c1C#N (centres unmarked) [Compound 65-12]
  IC50: ≤ 1000 nM

## CCOC(C(=O)c1ccc(-c2cc(OC)c(Br)c(OC)c2)o1)c1ccc(N2CCOCC2)cc1 (centres unmarked) [Compound 38-1, 1-(5-(4-Bromo-3,5-Dimethoxyphenyl)Furan-2-Yl)-2-Ethoxy-2-(4-Morpholinophenyl)Ethanone]
  IC50: ≤ 1000 nM

## COc1cc(-c2ccn(C(=O)C(OC)c3ccc(N4CCOCC4)cc3)n2)cc(OC)c1Br (centres unmarked) [Compound 52-1, 1-(3-(4-Bromo-3,5-Dimethoxyphenyl)-1H-Pyrazol-1-Yl)-2-Methoxy-2-(4-Morpholinophenyl)Ethanone]
  IC50: ≤ 1000 nM

## COc1ccc(C(OC)C(=O)c2ccc(-c3cc(OC)c(Br)c(OC)c3)o2)cn1 (centres unmarked) [Compound 42-1, 1-(5-(4-Bromo-3,5-Dimethoxyphenyl)Furan-2-Yl)-2-Methoxy-2-(6-Methoxypyridin-3-Yl)Ethanone]
  IC50: ≤ 1000 nM

## COc1cc(-c2coc(C(=O)C(OC)c3cnc4ccccc4c3)n2)cc(OC)c1Br (centres unmarked) [Compound 10-1, 1-(4-(4-Bromo-3,5-Dimethoxyphenyl)Oxazol-2-Yl)-2-Methoxy-2-(Quinolin-3-Yl)Ethanone]
  IC50: ≤ 1000 nM

## COc1cc(-c2ccc(C(=O)C(OC)c3ccc(-c4nnc(C)o4)cc3)s2)cc(OC)c1Br (centres unmarked) [Compound 57-1, 1-(5-(4-Bromo-3,5-Dimethoxyphenyl)Thiophen-2-Yl)-2-Methoxy-2-(4-(5-Methyl-1,3,4-Oxadiazol-2-Yl)Phenyl)Ethanone]
  IC50: ≤ 1000 nM

## COc1ccc(-c2ccn(C(=O)C(OC)c3ccc(F)cc3)n2)cc1OC (centres unmarked) [Compound 51-1, 1-(3-(3,4-Dimethoxyphenyl)-1H-Pyrazol-1-Yl)-2-(4-Fluorophenyl)-2-Methoxyethanone]
  IC50: ≤ 1000 nM

## COc1cc(-c2ccc(C(=O)C(OC)c3ccc(-n4nccn4)cc3)o2)cc(OC)c1Br (centres unmarked) [Compound 30-1, 2-(4-(2H-1,2,3-Triazol-2-Yl)Phenyl)-1-(5-(4-Bromo-3,5-Dimethoxyphenyl)Furan-2-Yl)-2-Methoxyethanone]
  IC50: ≤ 1000 nM

## COc1cc(-c2ccc(C(=O)C(OC)c3cccc4ncccc34)o2)cc(OC)c1Br (centres unmarked) [Compound 20-1, 1-(5-(4-Bromo-3,5-Dimethoxyphenyl)Furan-2-Yl)-2-Methoxy-2-(Quinolin-5-Yl)Ethanone]
  IC50: ≤ 1000 nM

## COc1cc(-c2ccc(C(=O)C(OC)c3ccc(-n4ccnn4)cc3)o2)cc(OC)c1Br (centres unmarked) [Compound 31-1, 2-(4-(1H-1,2,3-Triazol-1-Yl)Phenyl)-1-(5-(4-Bromo-3,5-Dimethoxyphenyl)Furan-2-Yl)-2-Methoxyethanone]
  IC50: ≤ 1000 nM

## CCOC(C(=O)c1ccc(-c2cc(OC)c(OC)c(OC)c2)o1)c1ccc(-c2nnc(C)o2)cc1 (centres unmarked) [Compound 46-1, 2-Ethoxy-2-(4-(5-Methyl-1,3,4-Oxadiazol-2-Yl)Phenyl)-1-(5-(3,4,5-Trimethoxyphenyl)Furan-2-Yl)Ethanone]
  IC50: ≤ 1000 nM

## COc1cc(-c2coc(C(=O)C(OC)c3ccc(N4CCCCC4)cc3)n2)cc(OC)c1Br (centres unmarked) [Compound 6-1, 1-(4-(4-Bromo-3,5-Dimethoxyphenyl)Oxazol-2-Yl)-2-Methoxy-2-(4-(Piperidin-1-Yl)Phenyl)Ethanone]
  IC50: ≤ 1000 nM

## COc1cc(-c2ccc(C(=O)C(OC)c3ccc(-c4nnc(C)o4)cc3)o2)cc(Cl)c1OC (centres unmarked) [Compound 40-1, 1-(5-(3-Chloro-4,5-Dimethoxyphenyl)Furan-2-Yl)-2-Methoxy-2-(4-(5-Methyl-1,3,4-Oxadiazol-2-Yl)Phenyl)Ethanone]
  IC50: ≤ 1000 nM

## COc1cc(-c2ccc(C(=O)C(OC)c3ccc(-c4nnc(C)o4)cc3)o2)cc(Br)c1OC (centres unmarked) [Compound 39-1, 1-(5-(3-Bromo-4,5-Dimethoxyphenyl)Furan-2-Yl)-2-Methoxy-2-(4-(5-Methyl-1,3,4-Oxadiazol-2-Yl)Phenyl)Ethanone]
  IC50: ≤ 1000 nM

## CCOC(C(=O)c1ccc(-c2cc(OC)c(F)c(OC)c2)o1)c1ccc(-c2nnc(C)o2)cc1 (centres unmarked) [Compound 65-13]
  IC50: ≤ 1000 nM
